Measurements reported in PMC7451048 (Drug metabolism letters, 2019).

Tests used:
[1] = target: T1, BCRP (Homo sapiens, UniProt Q9UNQ0); assay: Plasma membrane vesicle transport assay, BCRP vesicles; type: in vitro ADME; conditions: for Difference in BCRP vesicle uptake between ATP and AMP: 10 μM, 1 min (Fig. 9)
T1 sequence (Q9UNQ0 1-655): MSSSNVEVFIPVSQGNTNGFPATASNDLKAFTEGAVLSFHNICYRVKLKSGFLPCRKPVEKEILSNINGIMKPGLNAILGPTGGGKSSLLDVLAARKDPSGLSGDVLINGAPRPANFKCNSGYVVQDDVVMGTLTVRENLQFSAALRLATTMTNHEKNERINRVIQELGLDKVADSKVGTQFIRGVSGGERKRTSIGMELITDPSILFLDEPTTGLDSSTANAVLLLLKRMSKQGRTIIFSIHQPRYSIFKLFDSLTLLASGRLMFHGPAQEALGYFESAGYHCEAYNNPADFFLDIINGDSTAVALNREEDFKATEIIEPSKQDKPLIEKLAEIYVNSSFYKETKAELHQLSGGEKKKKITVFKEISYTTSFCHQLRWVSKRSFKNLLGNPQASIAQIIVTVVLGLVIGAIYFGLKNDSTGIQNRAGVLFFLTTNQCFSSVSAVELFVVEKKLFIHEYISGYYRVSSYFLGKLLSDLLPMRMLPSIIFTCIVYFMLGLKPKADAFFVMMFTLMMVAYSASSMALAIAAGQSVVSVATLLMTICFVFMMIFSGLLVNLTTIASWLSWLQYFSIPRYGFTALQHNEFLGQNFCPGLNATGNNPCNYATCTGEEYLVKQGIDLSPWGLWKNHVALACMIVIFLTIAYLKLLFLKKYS

[2] = target: P-gp (Homo sapiens, UniProt P08183); assay: Plasma membrane vesicle transport assay, P-gp vesicles; type: in vitro ADME; conditions: for Difference in P-gp vesicle uptake between ATP and AMP: 10 μM, 1 min (Fig. 9)
Sequence of P-gp (P08183 whole entry): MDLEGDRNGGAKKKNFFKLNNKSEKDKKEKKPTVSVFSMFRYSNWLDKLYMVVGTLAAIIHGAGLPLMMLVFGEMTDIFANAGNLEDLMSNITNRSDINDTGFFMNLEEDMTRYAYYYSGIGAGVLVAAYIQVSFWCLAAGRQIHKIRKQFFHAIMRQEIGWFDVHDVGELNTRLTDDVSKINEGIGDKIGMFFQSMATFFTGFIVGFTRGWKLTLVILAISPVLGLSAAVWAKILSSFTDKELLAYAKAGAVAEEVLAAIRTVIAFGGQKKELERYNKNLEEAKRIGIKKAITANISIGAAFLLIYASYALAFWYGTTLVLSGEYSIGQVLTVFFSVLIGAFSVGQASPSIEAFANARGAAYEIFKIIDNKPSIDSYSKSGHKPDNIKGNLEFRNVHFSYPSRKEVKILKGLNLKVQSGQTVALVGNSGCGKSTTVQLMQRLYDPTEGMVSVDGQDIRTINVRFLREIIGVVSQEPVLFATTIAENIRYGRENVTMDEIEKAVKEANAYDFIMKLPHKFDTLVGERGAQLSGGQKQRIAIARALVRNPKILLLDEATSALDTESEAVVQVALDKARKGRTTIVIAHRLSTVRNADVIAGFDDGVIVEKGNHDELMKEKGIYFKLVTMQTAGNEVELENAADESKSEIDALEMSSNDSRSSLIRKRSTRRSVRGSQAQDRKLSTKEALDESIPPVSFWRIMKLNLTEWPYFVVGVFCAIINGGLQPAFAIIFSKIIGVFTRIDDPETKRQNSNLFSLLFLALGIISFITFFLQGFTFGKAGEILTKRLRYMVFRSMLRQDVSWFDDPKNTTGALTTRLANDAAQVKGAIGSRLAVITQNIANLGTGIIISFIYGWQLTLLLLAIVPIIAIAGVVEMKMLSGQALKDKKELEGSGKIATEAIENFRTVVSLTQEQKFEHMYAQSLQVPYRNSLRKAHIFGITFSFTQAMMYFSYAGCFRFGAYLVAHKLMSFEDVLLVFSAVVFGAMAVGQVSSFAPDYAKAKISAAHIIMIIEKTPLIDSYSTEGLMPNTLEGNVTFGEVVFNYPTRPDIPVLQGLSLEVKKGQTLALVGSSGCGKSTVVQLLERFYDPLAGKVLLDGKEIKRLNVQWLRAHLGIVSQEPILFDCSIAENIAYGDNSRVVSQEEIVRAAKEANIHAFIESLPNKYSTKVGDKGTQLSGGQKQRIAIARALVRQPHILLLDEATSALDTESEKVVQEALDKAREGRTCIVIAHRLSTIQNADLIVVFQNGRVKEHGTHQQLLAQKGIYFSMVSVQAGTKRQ

[3] = target: T2, OATP2B1 (Homo sapiens, UniProt O94956); conditions: 3 min; for Inhibition of cellular uptake by RIF, OATP2B1-overexpressing cells: 20 μM RIF, BUP 5 μM, OHB 30 μM, TB 20 μM, EB 100 μM; for Apparent Vmax / Km: net cellular uptake, HEK/OATP2B1-overexpressing cells, mean ± SD; for Km: read-out: Apparent Km
T2 sequence (O94956 1-709): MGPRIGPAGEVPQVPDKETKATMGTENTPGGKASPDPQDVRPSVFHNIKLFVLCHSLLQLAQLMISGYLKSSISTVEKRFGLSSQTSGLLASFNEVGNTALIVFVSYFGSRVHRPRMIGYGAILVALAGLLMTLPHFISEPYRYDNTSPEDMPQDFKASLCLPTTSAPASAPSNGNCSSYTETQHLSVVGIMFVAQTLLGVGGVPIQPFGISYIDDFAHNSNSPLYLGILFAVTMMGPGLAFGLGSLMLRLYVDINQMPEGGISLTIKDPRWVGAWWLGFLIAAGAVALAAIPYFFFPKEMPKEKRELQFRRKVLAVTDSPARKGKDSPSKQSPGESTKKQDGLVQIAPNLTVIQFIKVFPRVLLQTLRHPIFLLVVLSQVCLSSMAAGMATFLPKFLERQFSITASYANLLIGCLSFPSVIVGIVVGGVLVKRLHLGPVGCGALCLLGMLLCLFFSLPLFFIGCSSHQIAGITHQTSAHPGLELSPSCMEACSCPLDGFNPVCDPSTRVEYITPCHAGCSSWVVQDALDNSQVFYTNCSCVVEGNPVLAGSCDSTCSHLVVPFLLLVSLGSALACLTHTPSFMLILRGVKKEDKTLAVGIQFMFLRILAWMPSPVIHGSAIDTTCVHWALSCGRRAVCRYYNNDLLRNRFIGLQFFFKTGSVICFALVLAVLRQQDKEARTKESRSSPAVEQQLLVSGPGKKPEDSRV

[4] = target: T3, OCT1 (Homo sapiens, UniProt O15245); assay: Cellular uptake assay, HEK/OCT1 vs HEK empty vector cells
T3 sequence (O15245 1-554): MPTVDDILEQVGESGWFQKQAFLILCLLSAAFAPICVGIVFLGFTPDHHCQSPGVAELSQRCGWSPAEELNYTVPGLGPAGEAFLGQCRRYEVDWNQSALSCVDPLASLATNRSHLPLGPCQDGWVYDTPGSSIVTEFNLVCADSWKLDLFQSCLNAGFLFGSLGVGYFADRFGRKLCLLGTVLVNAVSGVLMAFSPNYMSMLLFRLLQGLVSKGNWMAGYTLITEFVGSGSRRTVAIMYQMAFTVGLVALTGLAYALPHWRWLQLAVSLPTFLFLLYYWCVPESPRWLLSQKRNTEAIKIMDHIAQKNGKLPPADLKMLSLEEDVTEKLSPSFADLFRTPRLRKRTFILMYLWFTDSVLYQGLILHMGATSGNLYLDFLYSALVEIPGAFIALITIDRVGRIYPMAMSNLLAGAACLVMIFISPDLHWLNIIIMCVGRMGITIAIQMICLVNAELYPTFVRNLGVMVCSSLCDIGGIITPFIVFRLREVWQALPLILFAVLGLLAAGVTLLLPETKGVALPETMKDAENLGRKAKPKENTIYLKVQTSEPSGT

[5] = target: MRP2 (Homo sapiens, UniProt Q92887); assay: Plasma membrane vesicle transport assay, MRP2 vesicles; conditions: for Difference in MRP2 vesicle uptake between ATP and AMP: 10 μM, 1 min (Fig. 9)
Sequence of MRP2 (Q92887 whole entry): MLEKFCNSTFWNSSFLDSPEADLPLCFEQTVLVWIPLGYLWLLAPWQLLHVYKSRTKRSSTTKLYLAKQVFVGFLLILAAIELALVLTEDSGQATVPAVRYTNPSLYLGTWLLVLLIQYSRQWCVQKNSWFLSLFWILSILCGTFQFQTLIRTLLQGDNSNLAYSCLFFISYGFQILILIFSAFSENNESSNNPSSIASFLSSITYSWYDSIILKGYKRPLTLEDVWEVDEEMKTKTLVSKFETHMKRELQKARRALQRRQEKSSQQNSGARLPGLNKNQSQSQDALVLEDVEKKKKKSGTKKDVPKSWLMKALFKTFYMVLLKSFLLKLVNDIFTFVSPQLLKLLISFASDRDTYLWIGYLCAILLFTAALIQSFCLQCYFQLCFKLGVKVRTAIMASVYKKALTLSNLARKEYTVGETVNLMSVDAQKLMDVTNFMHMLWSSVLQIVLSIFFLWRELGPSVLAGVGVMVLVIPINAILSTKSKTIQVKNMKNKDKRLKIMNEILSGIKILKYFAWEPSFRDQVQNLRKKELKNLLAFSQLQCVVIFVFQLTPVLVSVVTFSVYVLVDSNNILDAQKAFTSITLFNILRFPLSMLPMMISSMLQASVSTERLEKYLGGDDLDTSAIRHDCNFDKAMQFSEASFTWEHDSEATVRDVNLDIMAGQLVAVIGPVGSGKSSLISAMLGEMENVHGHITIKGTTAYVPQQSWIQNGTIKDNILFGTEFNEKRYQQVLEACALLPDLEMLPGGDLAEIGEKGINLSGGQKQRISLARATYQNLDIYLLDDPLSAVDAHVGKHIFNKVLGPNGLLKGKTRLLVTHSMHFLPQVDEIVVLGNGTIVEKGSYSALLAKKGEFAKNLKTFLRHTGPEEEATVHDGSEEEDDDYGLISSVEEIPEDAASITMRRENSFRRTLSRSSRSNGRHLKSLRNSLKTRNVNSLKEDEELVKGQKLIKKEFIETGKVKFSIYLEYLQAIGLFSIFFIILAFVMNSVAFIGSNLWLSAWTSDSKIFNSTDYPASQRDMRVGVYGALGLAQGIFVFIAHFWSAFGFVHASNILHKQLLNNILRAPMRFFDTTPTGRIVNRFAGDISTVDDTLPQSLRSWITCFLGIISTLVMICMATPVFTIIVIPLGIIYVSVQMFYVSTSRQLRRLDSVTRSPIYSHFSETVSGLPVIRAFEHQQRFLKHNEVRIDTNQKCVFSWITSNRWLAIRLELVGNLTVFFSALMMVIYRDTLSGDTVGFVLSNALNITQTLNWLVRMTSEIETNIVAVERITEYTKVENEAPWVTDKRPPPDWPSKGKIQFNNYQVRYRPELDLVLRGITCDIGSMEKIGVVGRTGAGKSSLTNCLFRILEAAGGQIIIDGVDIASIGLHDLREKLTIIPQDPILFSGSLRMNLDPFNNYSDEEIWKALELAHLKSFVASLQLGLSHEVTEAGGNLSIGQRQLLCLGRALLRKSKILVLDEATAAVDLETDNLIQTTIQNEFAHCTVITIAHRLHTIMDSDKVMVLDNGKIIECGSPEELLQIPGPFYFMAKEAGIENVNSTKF

[6] = target: T2, OATP2B1
[7] = higher than BUP; ref [10], [13], [16], [17]; cited from earlier work
[8] = co-administration of clopidogrel and ticlopidine; ref [25]; cited from earlier work

Row | SMILES | Substrate of BCRP (conclusion) [1] | Difference in BCRP vesicle uptake between ATP and AMP [1] | Substrate of P-gp (conclusion) [2] | Difference in P-gp vesicle uptake between ATP and AMP [2] | Inhibition of cellular uptake by RIF, OATP2B1-overexpressing cells [3] | Apparent Vmax [3] [pmol/mg protein/min] | Km [3] [µM] | Substrate of OCT1 (conclusion) [4] | Substrate of MRP2 (conclusion) [5] | Difference in MRP2 vesicle uptake between ATP and AMP [5] | Substrate of OATP2B1 (conclusion) [6] | Circulating concentration relative to the parent drug [7] | Decrease in AUC [8]
1 | CC(NC(C)(C)C)C(O)c1cccc(Cl)c1 (stereo not drawn) [EB, Erythrohydrobupropion] | not substrates | No significant differences | not substrates | No significant differences | no statistically significant differences | 1752±192 | 192 ± 35 | not substrates | not substrates | No significant differences | not substrates | – | –
2 | C[C@H]1NC(C)(C)CO[C@]1(O)c1cccc(Cl)c1 [OHB, Hydroxybupropion] | not substrates | No significant differences | not substrates | No significant differences | no statistically significant differences | 1641±98 | 74 ± 12 | not substrates | not substrates | No significant differences | not substrates | 3 – 30 fold | 60–89%
3 | C[C@H](NC(C)(C)C)[C@@H](O)c1cccc(Cl)c1 [TB, Threohydrobupropion] | not substrates | No significant differences | not substrates | No significant differences | no statistically significant differences | 1368±72 | 53 ± 9 | not substrates | not substrates | No significant differences | not substrates | 3 – 30 fold | –
